Source: patent US20050182039A1, “Use of Loteprednol etabonate for the treatment of dry eye” (Bausch & Lomb Incorporated, priority 2004, published 2005)

Tested on: patients with KCS with inflammation
Assay: four-week topical use of a Loteprednol etabonate ophthalmic formulation in patients with KCS with inflammation
Assay type: in vivo, human
Excerpt: U.S. Patent Application. Publication No. 20030008853 discloses 22,29-epoxy-3,4,6,7,29-pentahydroxy-,(3α,4β,5α,6α,7-β,14β,22S)-stigmastan-15-one as useful for treating dry eye disorders and other disorders requiring the wetting of the eye. This publication further notes that corticosteroids, such as prednisolone, dexamethasone, fluoromethalone, hydrocortisone, loteprednol, triamcinolone, etc., cannot be used for prolonged therapy in dry eye patients without causing side effects. This publication further notes that steroid-related complications including increased intraocular pressure and cataract formation have been observed in dry eye patients treated with corticosteroids after several months of therapy.

CCOC(=O)O[C@]1(C(=O)OCCl)CC[C@H]2[C@@H]3CCC4=CC(=O)C=C[C@]4(C)[C@H]3[C@@H](O)C[C@@]21C [Loteprednol etabonate, (11β,17α),-17-[(Ethoxycarbonyl)oxy]-11-hydroxy-3-oxoandrosta-1,4-diene-17-carboxylic acid chloromethyl ester]
treatment effect in subsets of patients with a moderate to severe inflammatory component (more severe KCS) (patient subsets with moderate to severe inflammatory component): differential treatment effect, which was in some cases significant
efficacy in the management of patients with KCS with inflammation (used for four weeks): efficacious
tolerability in the management of patients with KCS with inflammation (used for four weeks): well tolerated
